Calls of active or inactive are those of the source. The calls are words filed in the database; no cut-off is given here.
Experiments:
Tubulin (Homo sapiens) [1] = target: T1, Tubulin (Homo sapiens) (UniProt P68371+Q9H4B7+P0DPH7+P68366+Q13509+Q71U36+P04350+Q3ZCM7+P07437+P68363+Q9BQE3+Q6PEY2+Q13885+Q9BVA1+Q9BUF5); test: Inhibition of tubulin polymerization in human MCF7 cells assessed as alteration of interphase microtubule network at 2 uM after 24 hrs by DAPI staining-based confocal microscopic analysis; assay type: cell-based
MCF7 [2] = test: Cell cycle arrest in human MCF7 cells assessed as accumulation at G0/G1 phase at 8 uM after 24 hrs by propidium iodide staining-based flow cytometry (reference value: 64.68 to 80.32%); assay type: functional
MCF7 [3] = test: Cell cycle arrest in human MCF7 cells assessed as accumulation at S phase at 2 uM after 24 hrs by propidium iodide staining-based flow cytometry (reference value: 15.95 to 25.74%); assay type: functional
MCF7 [4] = test: Cell cycle arrest in human MCF7 cells assessed as accumulation at S phase at 4 uM after 24 hrs by propidium iodide staining-based flow cytometry (reference value: 15.95 to 25.74%); assay type: functional
MCF7 [5] = test: Cell cycle arrest in human MCF7 cells assessed as accumulation at S phase at 8 uM after 24 hrs by propidium iodide staining-based flow cytometry (reference value: 15.95 to 25.74%); assay type: functional
MCF7 [6] = test: Cell cycle arrest in human MCF7 cells assessed as accumulation at G2/M phase at 2 uM after 24 hrs by propidium iodide staining-based flow cytometry (reference value: 3.73 to 10.75%); assay type: functional
MCF7 [7] = test: Cell cycle arrest in human MCF7 cells assessed as accumulation at G2/M phase at 4 uM after 24 hrs by propidium iodide staining-based flow cytometry (reference value: 3.73 to 10.75%); assay type: functional
MCF7 [8] = test: Cell cycle arrest in human MCF7 cells assessed as accumulation at G2/M phase at 8 uM after 24 hrs by propidium iodide staining-based flow cytometry (reference value: 3.73 to 10.75%); assay type: functional
MCF7 [9] = test: Cytotoxicity against human MCF7 cells after 36 hrs by MTT assay; assay type: functional, cell-based; settings: MCF7, 36 h
A549 = test: Cytotoxicity against human A549 cells after 36 hrs by MTT assay; assay type: functional, cell-based; settings: A549, 36 h
HeLa = test: Cytotoxicity against human HeLa cells after 36 hrs by MTT assay; assay type: functional, cell-based
[10] = Cytotoxicity against HEK293T cells after 36 hrs by MTT assay; assay type: cell-based; settings: Homo sapiens, HEK-293T
MCF7 [11] = test: Induction of apoptosis in human MCF7 cells after 24 hrs by Annexin V-FITC/propidium iodide staining-based flow cytometry; assay type: functional, cell-based
MCF7 [12] = test: Induction of apoptosis in human MCF7 cells assessed as necrotic cells at 1 uM after 24 hrs by Annexin V-FITC/propidium iodide staining-based flow cytometry (reference value: 0.021 to 3.8%); assay type: functional
MCF7 [13] = test: Induction of apoptosis in human MCF7 cells assessed as necrotic cells at 2 uM after 24 hrs by Annexin V-FITC/propidium iodide staining-based flow cytometry (reference value: 0.021 to 3.8%); assay type: functional
MCF7 [14] = test: Induction of apoptosis in human MCF7 cells assessed as necrotic cells at 4 uM after 24 hrs by Annexin V-FITC/propidium iodide staining-based flow cytometry (reference value: 0.021 to 3.8%); assay type: functional
MCF7 [15] = test: Induction of apoptosis in human MCF7 cells assessed as necrotic cells at 8 uM after 24 hrs by Annexin V-FITC/propidium iodide staining-based flow cytometry (reference value: 0.021 to 3.8%); assay type: functional
MCF7 [16] = test: Induction of apoptosis in human MCF7 cells assessed as late apoptotic cells at 1 uM after 24 hrs by Annexin V-FITC/propidium iodide staining-based flow cytometry (reference value: 5.92 to 9.33%); assay type: functional
MCF7 [17] = test: Cell cycle arrest in human MCF7 cells assessed as accumulation at G0/G1 phase at 2 uM after 24 hrs by propidium iodide staining-based flow cytometry (reference value: 64.68 to 80.32%); assay type: functional
MCF7 [18] = test: Cell cycle arrest in human MCF7 cells assessed as accumulation at G0/G1 phase at 4 uM after 24 hrs by propidium iodide staining-based flow cytometry (reference value: 64.68 to 80.32%); assay type: functional
MCF7 [19] = test: Induction of apoptosis in human MCF7 cells assessed as late apoptotic cells at 2 uM after 24 hrs by Annexin V-FITC/propidium iodide staining-based flow cytometry (reference value: 5.92 to 9.33%); assay type: functional
MCF7 [20] = test: Induction of apoptosis in human MCF7 cells assessed as late apoptotic cells at 4 uM after 24 hrs by Annexin V-FITC/propidium iodide staining-based flow cytometry (reference value: 5.92 to 9.33%); assay type: functional
MCF7 [21] = test: Induction of apoptosis in human MCF7 cells assessed as late apoptotic cells at 8 uM after 24 hrs by Annexin V-FITC/propidium iodide staining-based flow cytometry (reference value: 5.92 to 9.33%); assay type: functional
MCF7 [22] = test: Induction of apoptosis in human MCF7 cells assessed as early apoptotic cells at 1 uM after 24 hrs by Annexin V-FITC/propidium iodide staining-based flow cytometry (reference value: 2.45 to 6.92%); assay type: functional
MCF7 [23] = test: Induction of apoptosis in human MCF7 cells assessed as early apoptotic cells at 2 uM after 24 hrs by Annexin V-FITC/propidium iodide staining-based flow cytometry (reference value: 2.45 to 6.92%); assay type: functional
MCF7 [24] = test: Induction of apoptosis in human MCF7 cells assessed as early apoptotic cells at 4 uM after 24 hrs by Annexin V-FITC/propidium iodide staining-based flow cytometry (reference value: 2.45 to 6.92%); assay type: functional
MCF7 [25] = test: Induction of apoptosis in human MCF7 cells assessed as early apoptotic cells at 8 uM after 24 hrs by Annexin V-FITC/propidium iodide staining-based flow cytometry (reference value: 2.45 to 6.92%); assay type: functional
MCF7 [26] = test: Induction of apoptosis in human MCF7 cells assessed as viable cells at 1 uM after 24 hrs by Annexin V-FITC/propidium iodide staining-based flow cytometry (reference value: 80 to 91.6%); assay type: functional; settings: MCF7, 24 h, read-out: Activity
MCF7 [27] = test: Induction of apoptosis in human MCF7 cells assessed as viable cells at 2 uM after 24 hrs by Annexin V-FITC/propidium iodide staining-based flow cytometry (reference value: 80 to 91.6%); assay type: functional; settings: MCF7, 24 h, read-out: Activity
MCF7 [28] = test: Induction of apoptosis in human MCF7 cells assessed as viable cells at 4 uM after 24 hrs by Annexin V-FITC/propidium iodide staining-based flow cytometry (reference value: 80 to 91.6%); assay type: functional; settings: MCF7, 24 h, read-out: Activity
MCF7 [29] = test: Induction of apoptosis in human MCF7 cells assessed as viable cells at 8 uM after 24 hrs by Annexin V-FITC/propidium iodide staining-based flow cytometry (reference value: 80 to 91.6%); assay type: functional; settings: MCF7, 24 h, read-out: Activity
MCF7 [30] = test: Upregulation of CDK1 in human MCF7 cells at 2 to 8 uM after 24 hrs by Western blot analysis; assay type: functional, cell-based
MCF7 [31] = test: Downregulation of cyclin B1 in human MCF7 cells at 2 to 8 uM after 24 hrs by Western blot analysis; assay type: functional, cell-based
MCF7 [32] = test: Induction of apoptosis in human MCF7 cells assessed as increase in PARP cleavage at 8 uM after 24 hrs by Western blot analysis; assay type: functional, cell-based
Tubulin (Homo sapiens) [33] = target: T1, Tubulin (Homo sapiens); test: Inhibition of tubulin polymerization in human MCF7 cells assessed as alteration of interphase microtubule network at 4 uM after 24 hrs by DAPI staining-based confocal microscopic analysis; assay type: cell-based

CC(=O)O[C@H]1C(=O)[C@@]2(C)[C@H]([C@H](OC(=O)c3ccccc3)[C@]3(O)C[C@H](OC(=O)[C@H](O)[C@@H](NC(=O)c4ccccc4)c4ccccc4)C(C)=C1C3(C)C)[C@]1(OC(C)=O)CO[C@@H]1C[C@@H]2O
inhibition (Tubulin (Homo sapiens) [1]): inactive

COc1cc(C2c3cc4c(cc3[C@H](OC(=O)C(Cc3ccccc3)N3C(=O)C5C6CCC(O6)C5C3=O)[C@H]3COC(=O)[C@H]23)OCO4)cc(OC)c1OC (stereo not given in full)
Activity (MCF7 [2]): 8.17%
Activity (MCF7 [3]): 45.05%
Activity (MCF7 [4]): 43.82%
Activity (MCF7 [5]): 32.22%
Activity (MCF7 [6]): 32.33%
Activity (MCF7 [7]): 38.94%
Activity (MCF7 [8]): 59.61%
IC50 (MCF7 [9]): 880 nM
IC50 (A549): 7.82 µM
IC50 (HeLa): 3.21 µM
IC50 [10]: 54.4 µM
Activity (MCF7 [11]): Dose-dependent effect
Activity (MCF7 [12]): 0.021%
Activity (MCF7 [13]): 0%
Activity (MCF7 [14]): 0.03%
Activity (MCF7 [15]): 0.022%
Activity (MCF7 [16]): 14.2%
Activity (MCF7 [17]): 22.62%
Activity (MCF7 [18]): 17.24%
Activity (MCF7 [19]): 4.51%
Activity (MCF7 [20]): 6.15%
Activity (MCF7 [21]): 6.97%
Activity (MCF7 [22]): 50.3%
Activity (MCF7 [23]): 80.1%
Activity (MCF7 [24]): 73.1%
Activity (MCF7 [25]): 61.9%
viability at 1 µM (MCF7 [26]): 35.4%
viability at 2 µM (MCF7 [27]): 15.4%
viability at 4 µM (MCF7 [28]): 20.7%
viability at 8 µM (MCF7 [29]): 31.1%
Activity (MCF7 [30]): inactive
Activity (MCF7 [31]): Active
Activity (MCF7 [32]): Active
inhibition (Tubulin (Homo sapiens) [33]): Active

— ChEMBL document CHEMBL3813683, “Design, synthesis and anti-cancer activity evaluation of podophyllotoxin-norcantharidin hybrid drugs” (Bioorg Med Chem Lett, 2016)
